# Biological target: HPK1 (Homo sapiens, UniProt Q92918)
# Experiment: HPK1 Lantha Binding Assay ("Lanth")
# Settings: Table B1-1, read-out: HPK1 Ki (μM) (Lanth)
# In short: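 Compounds in an 11-point 5-fold series were preincubated 1 h at 23 C with 2 nM kinase plus 2 nM Eu-anti-GST antibody. Then 15 nM Tracer222 was added for another hour, and time-resolved FRET was read at 665/615 nm. Ki values come from a Morrison tight-binding model that uses the tracer Kd.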
# Chain of HPK1 (Q92918 whole entry, looked up): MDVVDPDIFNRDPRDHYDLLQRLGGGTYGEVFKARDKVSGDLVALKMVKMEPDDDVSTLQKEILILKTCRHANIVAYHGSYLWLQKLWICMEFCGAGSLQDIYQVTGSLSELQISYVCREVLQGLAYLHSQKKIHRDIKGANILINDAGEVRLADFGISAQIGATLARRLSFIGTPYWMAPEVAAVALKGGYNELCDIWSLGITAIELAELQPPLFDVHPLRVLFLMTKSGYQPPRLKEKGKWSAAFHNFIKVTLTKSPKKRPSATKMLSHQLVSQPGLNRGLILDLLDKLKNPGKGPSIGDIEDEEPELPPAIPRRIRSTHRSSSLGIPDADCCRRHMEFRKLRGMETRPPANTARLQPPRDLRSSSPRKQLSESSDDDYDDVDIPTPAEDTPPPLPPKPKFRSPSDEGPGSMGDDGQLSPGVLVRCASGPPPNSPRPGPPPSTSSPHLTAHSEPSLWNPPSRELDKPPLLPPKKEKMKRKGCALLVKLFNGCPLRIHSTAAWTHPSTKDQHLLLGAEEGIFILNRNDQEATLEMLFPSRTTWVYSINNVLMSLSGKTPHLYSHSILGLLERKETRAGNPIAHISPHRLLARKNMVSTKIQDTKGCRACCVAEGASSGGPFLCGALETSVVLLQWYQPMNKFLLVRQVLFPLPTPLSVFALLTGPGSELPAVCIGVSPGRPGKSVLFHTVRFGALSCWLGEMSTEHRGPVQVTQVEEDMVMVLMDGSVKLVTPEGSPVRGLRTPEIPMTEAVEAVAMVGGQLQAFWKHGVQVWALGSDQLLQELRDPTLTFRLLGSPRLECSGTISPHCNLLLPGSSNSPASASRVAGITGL
row,Ki [nM],Structure (SMILES)
1,0.736,"CCc1ccncc1-c1cc2cc(NC(=O)[C@H]3C[C@@H]3COC)ncc2c(N)n1 (racemic) [Compound 53, (±)-trans-N-(8-amino-6-(4-ethylpyridin-3-yl)-2,7-naphthyridin-3-yl)-2-(methoxymethyl) cyclopropane carboxamide]"
2,48.9,"Nc1nc(N2CCCC2CCO)cc2cc(NC(=O)[C@@H]3C[C@@H]3F)ncc12 (mixture of isomers) [Compound 54, (±)-cis-N-(8-amino-6-(2-(2-hydroxyethyl)pyrrolidin-1-yl)-2,7-naphthyridin-3-yl)-2-fluorocyclopropanecarboxamide]"
3,6.4,"COc1cc(-c2cc3cc(NC(=O)[C@@H]4C[C@@H]4F)ncc3c(N)n2)c(C)cn1 (racemic) [Compound 55, cis-N-(8-amino-6-(2-methoxy-5-methylpyridin-4-yl)-2,7-naphthyridin-3-yl)-2-fluorocyclopropanecarboxamide]"
4,0.4,"CCc1ccncc1-c1cc2cc(Nc3cc(C(O)CC)ccn3)ncc2c(N)n1 (racemic) [Compound 82, (±)-1-{2-[8-Amino-6-(4-ethylpyridin-3-yl)-[2,7]naphthyridin-3-ylamino]-pyridin-4-yl}propan-1-ol]"
5,70.7,"N#C[C@@H]1C[C@H]1C(=O)Nc1cc2cc(-c3cncc4c3CCCC4O)nc(N)c2cn1 (mixture of isomers) [Compound 99, (±)-trans-N-(8-amino-6-(8-hydroxy-5,6,7,8-tetrahydroisoquinolin-4-yl)-2,7-naphthyridin-3-yl)-2-cyanocyclopropane-1-carboxamide]"
6,4.97,"Nc1nc(-c2cccnc2)cc2cc(NC(=O)[C@@H]3C[C@@H]3F)ncc12 (racemic) [Compound 106, (±)-cis-N-(8-amino-6-(pyridin-3-yl)-2,7-naphthyridin-3-yl)-2-fluorocyclopropane-1-carboxamide]"
7,1.87,"N#C[C@@H]1C[C@H]1C(=O)Nc1cc2cc(-c3cn[nH]c3)nc(N)c2cn1 (racemic) [Compound 112, (±)-trans-N-(8-amino-6-(1H-pyrazol-4-yl)-2,7-naphthyridin-3-yl)-2-cyanocyclopropane-1-carboxamide]"
8,2.24,"CC(C)c1[nH]ncc1-c1cc2cc(NC(=O)[C@@H]3C[C@H]3C#N)ncc2c(N)n1 (racemic) [Compound 114, (±)-trans-N-(8-amino-6-(5-isopropyl-1H-pyrazol-4-yl)-2,7-naphthyridin-3-yl)-2-cyanocyclopropane-1-carboxamide]"
9,0.476,"Cc1ccncc1-c1cc2cc(NC(=O)[C@@H]3C[C@H]3C)ncc2c(N)n1 (racemic) [Compound 118, (±)-trans-N-(8-amino-6-(4-methylpyridin-3-yl)-2,7-naphthyridin-3-yl)-2-methylcyclopropane-1-carboxamide]"
10,2400,"Cc1ccncc1-c1cc2cc(NC3CCNC3)ncc2c(N)n1 (racemic) [Compound 120, (±)-3-(4-methyl-3-pyridyl)-N6-pyrrolidin-3-yl-2,7-naphthyridine-1,6-diamine]"
11,0.0629,"Cc1ccncc1-c1cc2cc(NC(=O)[C@@H]3C[C@H]3c3cn[nH]c3)ncc2c(N)n1 (racemic) [Compound 122, (±)-trans-N-[8-amino-6-(4-methyl-3-pyridyl)-2,7-naphthyridin-3-yl]-2-(1H-pyrazol-4-yl)cyclopropanecarboxamide]"
12,7,"Cc1ccncc1-c1cc2cc(NC(=O)[C@H]3C[C@]34CCNC4)ncc2c(N)n1 (racemic) [Compound 126, (±)-cis-N-(8-amino-6-(4-methylpyridin-3-yl)-2,7-naphthyridin-3-yl)-5-azaspiro[2.4]heptane-1-carboxamide]"
13,5.3,"COCCN1CC[C@]2(C[C@H]2C(=O)Nc2cc3cc(-c4cnccc4C)nc(N)c3cn2)C1 (racemic) [Compound 127, (±)-trans-N-(8-amino-6-(4-methylpyridin-3-yl)-2,7-naphthyridin-3-yl)-5-(2-methoxyethyl)-5-azaspiro[2.4]heptane-1-carboxamide]"
14,2.5,"COCCN1CC[C@]2(C[C@@H]2C(=O)Nc2cc3cc(-c4cnccc4C)nc(N)c3cn2)C1 (racemic) [Compound 128, (±)-cis-N-(8-amino-6-(4-methylpyridin-3-yl)-2,7-naphthyridin-3-yl)-5-(2-methoxyethyl)-5-azaspiro[2.4]heptane-1-carboxamide]"
15,0.31,"Cc1ccncc1-c1cc2cc(NC(=O)[C@@H]3C[C@H]3c3cccnc3)ncc2c(N)n1 (racemic) [Compound 131, (±)-trans-N-[8-amino-6-(4-methyl-3-pyridyl)-2,7-naphthyridin-3-yl]-2-(3-pyridyl)cyclopropane carboxamide]"
16,6.5,"N#C[C@H]1C[C@@H]1C(=O)Nc1cc2cc(-c3cn[nH]c3C(F)(F)F)nc(N)c2cn1 (racemic) [Compound 132, (±)-trans-N-[8-amino-6-[5-(trifluoromethyl)-1H-pyrazol-4-yl]-2,7-naphthyridin-3-yl]-2-cyano-cyclopropanecarboxamide]"
17,130,"Cc1ccncc1-c1cc2cc(NC(=O)[C@@H]3C[C@@H]3C(=O)N(C)C)ncc2c(N)n1 (racemic) [Compound 136, (±)-cis-N1-(8-amino-6-(4-methylpyridin-3-yl)-2,7-naphthyridin-3-yl)-N2,N2-dimethylcyclopropane-1,2-dicarboxamide]"
18,110,"CCNC(=O)[C@H]1C[C@H]1C(=O)Nc1cc2cc(-c3cnccc3C)nc(N)c2cn1 (racemic) [Compound 137, (±)-(cis)-N1-(8-amino-6-(4-methylpyridin-3-yl)-2,7-naphthyridin-3-yl)-N2-ethylcyclopropane-1,2-dicarboxamide]"
19,32,"Cc1ccncc1-c1cc2cc(NC(=O)[C@H]3C[C@@H]3C(=O)N(C)C)ncc2c(N)n1 (racemic) [Compound 138, (±)-trans-N1-(8-amino-6-(4-methylpyridin-3-yl)-2,7-naphthyridin-3-yl)-N2,N2-dimethylcyclopropane-1,2-dicarboxamide]"
20,1.4,"Cc1cc2c(cc1-c1cc3cc(NC(=O)[C@H]4C[C@@H]4C#N)ncc3c(N)n1)oc(=O)n2C (racemic) [Compound 142, (±)-trans-N-(8-amino-6-(3,5-dimethyl-2-oxo-2,3-dihydrobenzo[d]oxazol-6-yl)-2,7-naphthyridin-3-yl)-2-cyanocyclopropanecarboxamide]"
21,2,"COc1ccc(Cn2cncc2[C@@H]2C[C@H]2C(=O)Nc2cc3cc(-c4cnccc4C)nc(N)c3cn2)cc1 (racemic) [Compound 145, (±)-trans-N-[8-amino-6-(4-methyl-3-pyridyl)-2,7-naphthyridin-3-yl]-2-[3-[(4-methoxyphenyl)methyl]imidazol-4-yl]cyclopropanecarboxamide]"
22,0.02,"CCS(=O)(=O)n1cc([C@H]2C[C@@H]2C(=O)Nc2cc3cc(-c4cnccc4C)nc(N)c3cn2)cn1 (racemic) [Compound 146, (±)-trans-N-[8-amino-6-(4-methyl-3-pyridyl)-2,7-naphthyridin-3-yl]-2-(1-ethylsulfonylpyrazol-4-yl)cyclopropanecarboxamide]"
23,2.8,"Cc1ccncc1-c1cc2cc(NC(=O)[C@@H]3C[C@]34CCN(S(C)(=O)=O)C4)ncc2c(N)n1 (racemic) [Compound 148, (±)-trans-N-(8-amino-6-(4-methylpyridin-3-yl)-2,7-naphthyridin-3-yl)-5-(methylsulfonyl)-5-azaspiro[2.4]heptane-1-carboxamide]"
24,0.78,"Cc1ccncc1-c1cc2cc(NC(=O)[C@H]3C[C@]34CCN(S(C)(=O)=O)C4)ncc2c(N)n1 (racemic) [Compound 149, (±)-cis-N-(8-amino-6-(4-methylpyridin-3-yl)-2,7-naphthyridin-3-yl)-5-(methylsulfonyl)-5-azaspiro[2.4]heptane-1-carboxamide]"
25,0.95,"Cc1c(N)cncc1-c1cc2cc(NC(=O)[C@@H]3C[C@H]3C#N)ncc2c(N)n1 (racemic) [Compound 165, (±)-trans-N-(8-amino-6-(5-amino-4-methylpyridin-3-yl)-2,7-naphthyridin-3-yl)-2-cyanocyclopropanecarboxamide]"
26,1.5,"CC(=O)N1CCC([C@@H]2C[C@H]2C(=O)Nc2cc3cc(-c4cnccc4C)nc(N)c3cn2)CC1 (racemic) [Compound 166, (±)-trans-2-(1-acetylpiperidin-4-yl)-N-(8-amino-6-(4-methylpyridin-3-yl)-2,7-naphthyridin-3-yl)cyclopropanecarboxamide]"
27,9.4,"Cc1cc(-c2ccc[nH]c2=O)ncc1-c1cc2cc(NC(=O)[C@H]3C[C@H]3F)ncc2c(N)n1 (racemic) [Compound 167, (±)-cis-N-(8-amino-6-(4-methyl-6-(2-oxo-1,2-dihydropyridin-3-yl)pyridin-3-yl)-2,7-naphthyridin-3-yl)-2-fluorocyclopropanecarboxamide]"
28,8.5,"Cc1ccncc1-c1cc2cc(NC(=O)NC(C)CO)ncc2c(N)n1 (racemic) [Compound 177, 1-(8-amino-6-(4-methylpyridin-3-yl)-2,7-naphthyridin-3-yl)-3-(1-hydroxypropan-2-yl)urea]"
29,0.25,"Cc1ccncc1-c1cc2cc(NC(=O)Nc3cnn(C(C)C#N)c3)ncc2c(N)n1 (racemic) [Compound 178, 1-[8-amino-6-(4-methyl-3-pyridyl)-2,7-naphthyridin-3-yl]-3-[1-(1-cyanoethyl)pyrazol-4-yl]urea]"

row,Structure (SMILES),Ki [nM]
1,"Cc1cc2[nH]c(=O)oc2cc1-c1cc2cc(NC(=O)C3C[C@H]3C#N)ncc2c(N)n1 (mixture of isomers) [Compound 135, (±)-((trans-)-N-(8-amino-6-(5-methyl-2-oxo-2,3-dihydrobenzo[d]oxazol-6-yl)-2,7-naphthyridin-3-yl)-2-cyanocyclopropanecarboxamide]",0.25
2,"Cc1cc2[nH]c(=O)oc2cc1-c1cc2cc(NC(=O)[C@@H]3C[C@H]3c3cn[nH]c3)ncc2c(N)n1 (racemic) [Compound 144, (±)-trans-N-[8-amino-6-(5-methyl-2-oxo-3H-1,3-benzoxazol-6-yl)-2,7-naphthyridin-3-yl]-2-(1H-pyrazol-4-yl)cyclopropanecarboxamide]",1.1

# Source: patent US11034692B1 (Genentech, Inc., priority 2017, dated 2021)
